Experimental data as given in ChEMBL document CHEMBL5380842, “Discovery of a Potent and Selective CCR8 Small Molecular Antagonist IPG7236 for the Treatment of Cancer” (J Med Chem, 2023).
In brackets after ≈: the same amount, converted by molar mass.

Assays:
[1] = Apparent permeability of compound across apical to basal side in human Caco2 cells at 10 uM incubated for 120 mins by LC-MS/MS analysis; conditions: Caco-2
[2] = Apparent permeability of compound across basal to apical side in human Caco2 cells at 10 uM incubated for 120 mins by LC-MS/MS analysis; conditions: Caco-2
[3] = Solubility of compound in PBS at pH 7.4 incubated for 2 hrs by LC-MS/MS analysis; assay type: physicochemical
[4] = biological target: C-C chemokine receptor type 8 (Homo sapiens, UniProt P51685); experiment: Antagonist activity against CCR8 (unknown origin) expressed in CHO-K1 cells preincubated for 1 hr followed by CCL1 addition measured after 24 hrs by ONE-Glo assay; assay type: cell-based
Chain of C-C chemokine receptor type 8 (P51685 whole entry): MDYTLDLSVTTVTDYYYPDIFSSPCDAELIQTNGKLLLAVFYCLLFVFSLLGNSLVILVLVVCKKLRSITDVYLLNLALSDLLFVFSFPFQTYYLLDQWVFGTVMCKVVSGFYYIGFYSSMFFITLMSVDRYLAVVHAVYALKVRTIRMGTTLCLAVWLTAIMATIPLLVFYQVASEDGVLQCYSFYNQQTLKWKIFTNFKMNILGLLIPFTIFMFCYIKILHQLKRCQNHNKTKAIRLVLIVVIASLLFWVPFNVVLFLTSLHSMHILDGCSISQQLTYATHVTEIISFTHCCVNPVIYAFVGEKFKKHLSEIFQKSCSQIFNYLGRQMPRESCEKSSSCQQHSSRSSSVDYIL

[5] = Efflux ratio of apparent permeability across basolateral to apical side over apical to basolateral side in human Caco-2 cells at 10 uM incubated for 120 mins by LC-MS/MS analysis

| SMILES | Papp A→B at 2 h, 10 µM [1] | Papp B→A at 2 h, 10 µM [2] | solubility at 2 h [3] | IC50 [4] | efflux ratio at 2 h, 10 µM [5] |
| --- | --- | --- | --- | --- | --- |
| Cc1ccccc1C(=O)Nc1ccc(S(=O)(=O)N[C@H](C)C2CCN(C)CC2)c2ccccc12 | 1.3 ×10⁻⁶ cm/s | 3.4 ×10⁻⁶ cm/s | < 3 µM |  |  |
| CCCC(=O)N1CCCC(CNS(=O)(=O)c2ccc(NC(=O)c3ccccc3C)c3ccccc23)C1 (stereo not given) |  |  |  | > 1000 nM |  |
| Cc1cc(S(=O)(=O)N[C@H](C)C2CCN(C)CC2)ccc1NC(=O)c1ccsc1C | 1.5 ×10⁻⁶ cm/s | 25.9 ×10⁻⁶ cm/s |  |  |  |
| Cc1ccccc1C(=O)Nc1c(C)cc(S(=O)(=O)N[C@H](C)C2CCN(C)CC2)cc1Cl | 1.1 ×10⁻⁶ cm/s | 19.5 ×10⁻⁶ cm/s | 247 µM (≈ 115 µg/mL) |  | 17.7 |
| Cc1ccccc1C(=O)Nc1ccc(S(=O)(=O)NC(C)C2CCCCN2)c2ccccc12 (stereo not given) |  |  |  | > 1000 nM |  |
| CCCN1CCN(c2ccc(OC)c(NS(=O)(=O)c3ccc(NC(=O)c4ccccc4C)c4ccccc34)c2)CC1 |  |  |  | > 1000 nM |  |
| Cc1ccccc1C(=O)Nc1ccc(S(=O)(=O)N[C@H](C)C2CCN(C)CC2)cc1Cl | 0.7 ×10⁻⁶ cm/s | 25.9 ×10⁻⁶ cm/s | 233 µM (≈ 105 µg/mL) |  |  |
| CCCN1CCC([C@@H](C)NS(=O)(=O)c2ccc(NC(=O)c3ccccc3C)c(C)c2)CC1 | 2.2 ×10⁻⁶ cm/s | 30.4 ×10⁻⁶ cm/s |  |  |  |
| Cc1cc(S(=O)(=O)N[C@H](C)C2CCN(C)CC2)ccc1NC(=O)C1CCCCCC1 | 2 ×10⁻⁶ cm/s | 17.7 ×10⁻⁶ cm/s |  | 28 nM | 8.9 |
| COCCN1CCC([C@@H](C)NS(=O)(=O)c2ccc(NC(=O)c3ccccc3C)c(C)c2)CC1 |  |  |  | 79 nM |  |
| COC(=O)CN1CCC([C@@H](C)NS(=O)(=O)c2ccc(NC(=O)c3ccccc3C)c(C)c2)CC1 |  |  |  | 129 nM |  |
| CCCN1CCN(c2ccc(C)c(NS(=O)(=O)c3ccc(NC(=O)c4ccccc4C)c4ccccc34)c2)CC1 |  |  |  | > 1000 nM |  |
| CCCN1CCCN(c2cc(NS(=O)(=O)c3ccc(NC(=O)c4ccccc4C)c4ccccc34)ccc2OC)CC1 |  |  |  | > 1000 nM |  |
| Cc1cc(S(=O)(=O)N[C@H](C)C2CCN(C)CC2)ccc1NC(=O)c1cc(Cl)ccc1C | 1.6 ×10⁻⁶ cm/s | 31.4 ×10⁻⁶ cm/s |  | 1.7 nM | 19.6 |
| Cc1ccccc1C(=O)Nc1ccc(S(=O)(=O)N[C@H](C)C2CCN(C)CC2)cc1C#N | 0.2 ×10⁻⁶ cm/s | 2.7 ×10⁻⁶ cm/s |  | 33 nM | 13.5 |
| Cc1ccccc1C(=O)Nc1ccc(S(=O)(=O)N[C@H](C)C23CCN(CC2)CC3)c2ccccc12 |  |  |  | 303 nM |  |
| Cc1cc(S(=O)(=O)NCC2CCN(C)CC2)ccc1NC(=O)c1ccccc1C |  |  |  | 251 nM |  |
| Cc1cc(S(=O)(=O)N[C@H](C)C2CCN(C)CC2)ccc1NC(=O)c1ccc(Cl)cc1C | 1.1 ×10⁻⁶ cm/s | 19.4 ×10⁻⁶ cm/s |  | 1.7 nM | 17.6 |
| Cc1cc(S(=O)(=O)N[C@H](C2CC2)C2CCN(C)CC2)ccc1NC(=O)c1ccccc1C | 0.3 ×10⁻⁶ cm/s | 3.6 ×10⁻⁶ cm/s |  |  |  |
| CCc1cc(S(=O)(=O)N[C@H](C)C2CCN(C)CC2)ccc1NC(=O)c1ccccc1C | 1.5 ×10⁻⁶ cm/s | 25.9 ×10⁻⁶ cm/s |  |  |  |
| CCCC(=O)N1CCCC(C(=O)NS(=O)(=O)c2ccc(NC(=O)c3ccccc3C)c3ccccc23)C1 (stereo not given) |  |  |  | > 1000 nM |  |
| Cc1cc(S(=O)(=O)N[C@H](C)C2CCN(C)CC2)c(Cl)cc1NC(=O)c1ccccc1C | 2 ×10⁻⁶ cm/s | 25.5 ×10⁻⁶ cm/s |  |  |  |
| CCCN1CCN(c2cccc(NS(=O)(=O)c3ccc(NC(=O)c4ccccc4C)c4ccccc34)c2C)CC1 |  |  |  | > 1000 nM |  |
| Cc1ccccc1C(=O)Nc1ccc(S(=O)(=O)Nc2cccc3c2N(CCN(C)C)C(=O)CO3)c2ccccc12 |  |  |  | > 1000 nM |  |
| Cc1cc(S(=O)(=O)N[C@H](C)C2CCN(C)CC2)c(C)cc1NC(=O)c1ccccc1C | 1 ×10⁻⁶ cm/s | 20.1 ×10⁻⁶ cm/s |  |  |  |
| Cc1cc(S(=O)(=O)N[C@H](C)C2CCN(C)CC2)c(F)cc1NC(=O)c1ccccc1C | 2.2 ×10⁻⁶ cm/s | 19.8 ×10⁻⁶ cm/s |  | 6 nM | 9 |
| Cc1ccccc1C(=O)Nc1ccc(S(=O)(=O)NC2CCN(C(=O)N3CCN(C)CC3)CC2)c2ccccc12 |  |  |  | 4 nM |  |
